In ChEMBL document CHEMBL3091354, “Tyrosinase and Layer-by-Layer supported tyrosinases in the synthesis of lipophilic catechols with antiinfluenza activity” (Bioorg Med Chem, 2013):
≈ marks a conversion by molar mass, not a printed value. Calls of active or inactive are those of the source. The rule behind the calls is not given here.

Legend:
[1] = system: Radical scavenging activity; experiment: Antioxidant activity assessed as DPPH radical scavenging activity; type: functional
[2] = system: Influenza A virus; experiment: Antiviral activity against Influenza A/PR8/H1N1 virus infected in MDCK cells assessed as inhibition of virus yield after 48 hrs; type: functional
[3] = system: Influenza A virus; experiment: Antiviral activity against Influenza A/PR8/H1N1 virus infected in MDCK cells assessed as inhibition of virus yield at 10 to 20 ug/ml after 48 hrs; type: functional, organism-based
[4] = system: Influenza A virus; experiment: Antiviral activity against Influenza A/PR8/H1N1 virus infected in MDCK cells assessed as inhibition of virus yield after 24 hrs; type: functional, organism-based
[5] = system: MDCK; experiment: Cytotoxicity against MDCK cells assessed as effect on cell viability at 20 ug/ml; type: cell-based, Canis lupus familiaris; settings: dog
[6] = system: MDCK; experiment: Cytotoxicity against MDCK cells assessed as effect on cell viability at 50 to 100 ug/ml; type: cell-based, Canis lupus familiaris; settings: dog
[7] = system: MDCK; experiment: Cytotoxicity against MDCK cells assessed as effect on cell morphology at 50 to 100 ug/ml; type: cell-based, Canis lupus familiaris; settings: dog
[8] = system: MDCK; experiment: Cytotoxicity against MDCK cells assessed as effect on cell morphology at 20 ug/ml; type: cell-based, Canis lupus familiaris; settings: dog

Question: With `COC(=O)CCc1ccc(O)cc1` as the molecule, how does the Activity [1] read?
Answer: The Activity was “inactive”.

Question: `CCOC(=O)CCc1ccc(O)c(O)c1` was tested. Which inhibition [2] did it give?
Answer: The inhibition was “inactive”.

Question: And the EC50 [1]?
Answer: The EC50 was 136.7 µg/mL (≈ 650 µM).

Question: For `CCC(=O)OCCc1ccc(O)c(O)c1`, which “inhibition (INH)” value [2] is on record?
Answer: The value was 75%.

Question: What about the EC50 [1] of the same molecule?
Answer: Its EC50 is 0.56 µg/mL (≈ 2.66 µM).

Question: Which results are given for `CCCCOC(=O)CCc1ccc(O)c(O)c1`?
Answer: inhibition [2]: inactive; EC50 [1]: 58.9 µg/mL (≈ 247 µM)

Question: Which Activity [3] does the source give for `CCCC(=O)OCCc1ccc(O)cc1` here?
Answer: Its Activity is “inactive”.

Question: `O=C(O)CCc1ccc(O)c(O)c1` [DIHYDROCAFFEIC ACID] was tested. Which inhibition [2] did it give?
Answer: Its inhibition is “inactive”.

Question: What about the EC50 [1] of the same molecule?
Answer: The EC50 was 61.29 µg/mL (≈ 336 µM).

Question: How did the Activity [3] turn out when `CCCCC(=O)OCCc1ccc(O)cc1` was run?
Answer: Its Activity is “inactive”.

Question: For `NC(=O)c1ncn([C@@H]2O[C@H](CO)[C@@H](O)[C@H]2O)n1` [RIBAVIRIN], which IC50 [4] is on record?
Answer: The IC50 was 14 µM.

Question: How did the inhibition [2] turn out when `COC(=O)CCc1ccc(O)c(O)c1` was run?
Answer: Its inhibition is “inactive”.

Question: And the EC50 [1]?
Answer: Its EC50 is 161.9 µg/mL (≈ 825 µM).

Question: Which inhibition [2] does the source give for `CC(=O)OCCc1ccc(O)c(O)c1` here?
Answer: The inhibition was “inactive”.

Question: What about the EC50 [1] of the same molecule?
Answer: The EC50 was 0.57 µg/mL (≈ 2.91 µM).

Question: With `O=C(O)CCc1ccc(O)cc1` as the molecule, how does the Activity [1] read?
Answer: Its Activity is “inactive”.

Question: What does the source list for `CCCCC(=O)OCCc1ccc(O)c(O)c1`?
Answer: Activity [5]: Non-toxic; Activity [6]: Toxic; Activity [7]: Toxic; IC50 [4]: 34 µM; inhibition [4]: Dose-dependent effect; EC50 [1]: 0.59 µg/mL (≈ 2.48 µM); Activity [8]: Non-toxic

Question: How did the Activity [5] turn out when `CCCC(=O)OCCc1ccc(O)c(O)c1` [HYDROXYTYROSOL BUTANOATE] was run?
Answer: Its Activity is “Non-toxic”.

Question: What about the Activity [6] of the same molecule?
Answer: The Activity was “Toxic”.

Question: And the Activity [7]?
Answer: The Activity was “Toxic”.

Question: What about the IC50 [4] of the same molecule?
Answer: The IC50 was 29.8 µM.

Question: What about the inhibition [4] of the same molecule?
Answer: The inhibition was “Dose-dependent effect”.

Question: And the EC50 [1]?
Answer: Its EC50 is 0.58 µg/mL (≈ 2.59 µM).

Question: What about the Activity [8] of the same molecule?
Answer: Its Activity is “Non-toxic”.

Question: For `CCCOC(=O)CCc1ccc(O)c(O)c1`, which inhibition [2] is on record?
Answer: The inhibition was “inactive”.

Question: And the EC50 [1]?
Answer: Its EC50 is 89.65 µg/mL (≈ 400 µM).
